Patent publication US12060387B2, “Polypeptide-based shuttle agents for improving the transduction efficiency of polypeptide cargos to the cytosol of target eukaryotic cells, uses thereof, methods and kits relating to same” (priority 2015, dated 2024)
Read-outs that look alike come from different tables or passages of the source. Where no end group is shown, it is not given here.

Experiments:
[1] = Cell toxicity / % cell viability by flow cytometry (cells in total events v. untreated); format: cell-based, human; settings: human, THP-1 cells, Cell viability (%) (±St. Dev.; n = 3), FIG. 17B; THP-1; GFP-NLS 5 μM; shuttle 1 μM; 5 minutes
From the text: (§4) The fluorescence of GFP was quantified using flow cytometry (Accuri C6, Becton, Dickinson and Company (BD)). Untreated cells were used to establish a baseline in order to quantify the increased fluorescence due to the internalization of the fluorescent protein in treated cells. The percentage of cells with a fluorescence signal above the maximum fluorescence of untreated cells, “mean %” or “Pos cells (%)”, is used to identify positive fluorescent cells. “Relative fluorescence intensity (FL1-A)” corresponds to the mean of all fluorescence intensities from each cell with a fluorescent signal after fluorescent protein delivery with the shuttle agent. Also, the events scanned by flow cytometry corresponding to cells (size and granularity) were analyzed. The cellular toxicity (% cell viability) was monitored comparing the percentage of cells in the total events scanned of treated cells comparatively to untreated cells.

HeLa cells [2] = experiment: as above; format: cell-based, Human; settings: HeLa; GFP-NLS 5 μM; shuttle 1 μM; 1 hour
From the text: as §4

[3] = as above; format: cell-based, Human; settings: human, HeLa cells, HeLa, 1 hour; for viability at 1 h, 0.5 µM / viability at 1 h, 1 µM / viability at 1 h, 3 µM / viability at 1 h, 5 µM: Cell viability (%) (±St. Dev.; n = 3), read-out: Cell viability (%) (±St. Dev.; n = 3); for viability at 1 h, 0.5 µM: shuttle 0.5 μM; for viability at 1 h, 1 µM: shuttle 1 μM; for viability at 1 h, 3 µM: shuttle 3 μM; for viability at 1 h, 5 µM: shuttle 5 μM
From the text: as §4

primary myoblasts = experiment: Calcein endosomal escape assay, quantification by flow cytometry; format: cell-based, Human
Procedure: (§1) In addition to microscopy, flow cytometry allows a more quantitative analysis of the endosomal leakage as the fluorescence intensity signal increases once the calcein is released in the cytoplasm. Calcein fluorescence is optimal at physiological pH (e.g., in the cytosol), as compared to the acidic environment of the endosome.
(§2) The cells were allowed to attach by incubating overnight in appropriate growth media, as described in Example 1. The next day, the media in wells was removed and replaced with 50 μL of fresh media without serum containing 62.5 μg/mL (100 μM) of calcein, except for HEK293A (250 μg/mL, 400 μM). At the same time, the shuttle agent(s) to be tested was added at a predetermined concentration. The plate was incubated at 37° C. for 30 minutes. The cells were washed with 1×PBS (37° C.) and fresh media containing 5-10% serum was added. The plate was incubated at 37° C. for 2.5 hours. The cells were washed with 1×PBS and detached using trypsinization.
(§3) Untreated calcein-loaded cells were used as a control to distinguish cells having a baseline of fluorescence due to endosomally-trapped calcein from cells having increased fluorescence due to release of calcein from endosomes. Fluorescence signal means (“mean counts”) were analyzed for endosomal escape quantification. In some cases, the “Mean Factor” was calculated, which corresponds to the fold-increase of the mean counts relative to control (untreated calcein-loaded cells). […] The cellular mortality was monitored with the percentage of cells in the total events scanned. When it became lower than the control, it was considered that the number of cellular debris was increasing due to toxicity and the assay was discarded.
To examine the effects of the shuttle agents on primary cells, primary myoblast cells were cultured and tested in the endosomal escape assays as described in Example 2.1. The results of flow cytometry analyses are summarized below in Tables 2.9 and 2.10, and in FIG. 4. In each case, the flow cytometry results were also confirmed by fluorescence microscopy.

HeLa cells [4] = experiment: GFP-NLS transduction efficiency, flow cytometry (Pos cells %, relative fluorescence intensity FL1-A); format: cell-based, Human; settings: GFP-NLS 5 μM, 1 hour
HeLa cells [5] = experiment: GFP transduction efficiency, flow cytometry (% GFP-positive cells); format: cell-based, Human; settings: for Mean (%) (n = 3), FIG. 7B: shuttle 2.5 μM
Procedure: GFP, GFP-NLS and TAT-GFP are recombinant proteins developed and produced by Feldan (see Example 3.4 below).
Briefly, GFP recombinant protein was co-incubated with different concentrations of CM18-TAT-Cys or dimerized CM18-TAT-Cys (dCM18-TAT-Cys), and then exposed to HeLa cells for 1 hour.
Briefly, GFP recombinant protein (5 μM) was co-incubated with different concentrations and combinations of CM18-TAT-Cys, CM18-Penetratin-Cys, and dimers of each (dCM18-TAT-Cys, dCM18-Penetratin-Cys), and then exposed to HeLa cells for 1 hour. […] The results are shown in Table 3.3 and FIG. 8, as well as in Table 3.4 and FIG. 9.

HeLa cells [6] = format: cell-based, Human
Procedure: as §1, §2, §3
HeLa cells were cultured and tested in the endosomal escape assays as described in Example 2.1. In each case, the flow cytometry results were also confirmed by fluorescence microscopy (data not shown).

[7] = FIG. 11B, TAT-GFP 5 μM, FIG. 11B
[8] = FIG. 13B, GFP-NLS 5 μM, FIG. 13B
[9] = FIG. 21B, GFP-NLS 5 μM, FIG. 21B

## KWKLFKKIGAVLKVLTTGYGRKKRRQRRRC [CM18-TAT-Cys]
[1]
  viability at 5 min, 1 µM: 85 ± 6%
HeLa cells [2]
  Cell viability (%) (±St. Dev.; n = 3), FIG. 21B: 94 ± 4.28%
[3]; FIG. 6B, GFP 5 μM, FIG. 6B
  viability at 1 h, 0.5 µM: 88.4 ± 6%
  viability at 1 h, 1 µM: 90 ± 6%
  viability at 1 h, 3 µM: 91 ± 5%
  viability at 1 h, 5 µM: 90 ± 7%
[3]; [7]
  viability at 1 h, 0.5 µM: 84.4 ± 5%
  viability at 1 h, 1 µM: 89.3 ± 5.26%
  viability at 1 h, 3 µM: 93.2 ± 6.28%
  viability at 1 h, 5 µM: 95.1 ± 5.28%
[3]; [8]
  viability at 1 h, 0.5 µM: 87.6 ± 4%
  viability at 1 h, 1 µM: 93 ± 8%
  viability at 1 h, 3 µM: 94 ± 5%
  viability at 1 h, 5 µM: 93 ± 4%
[3]; [9]
  viability at 1 h, 3 µM: 89 ± 5.37%
  viability at 1 h, 5 µM: 81 ± 6.34%
[3]; antibody 0.5 μM, shuttle 3.5 μM, read-out: Cell viability (%) (± St. Dev.; n = 3), FIG. 19B
  viability at 1 h, 3.5 µM: 95 ± 4.06%
Primary myoblasts; myoblast cells
  concentrations associated with an increase in cell toxicity: above 10 μM

## KWKLFKKIGAVLKVLTTGYGRKKRRQRRRC [dCM18-TAT-Cys]
HeLa cells [4]; Tables 5.2, 5.3, FIGS. 14, 15
  GFP-NLS transduction efficiency / intracellular delivery (in words): increased
HeLa cells [4]; shuttle 0.5 μM
  Mean (%) (n = 3), FIG. 14: 8.29%
HeLa cells [4]; shuttle 1 μM
  Mean (%) (n = 3), FIG. 15: 17.83%
HeLa cells [5]; GFP 5 μM, 1 hour, Table 3.3 and FIG. 8
  GFP transduction efficiency / intracellular delivery (in words): increased
HeLa cells [5]; GFP 5 μM, 1 hour, Table 3.4 and FIG. 9
  GFP transduction efficiency / intracellular delivery (in words): increased
HeLa cells [5]; GFP 5 μM, shuttle 0.5 μM, 1 hour
  Mean (%) (n = 3), FIG. 8: 8.86%
HeLa cells [5]; GFP 5 μM, shuttle 1 μM, 1 hour
  Mean (%) (n = 3), FIG. 9: 18.43%
HeLa cells [5]; GFP 1 μM
  Mean (%) (n = 3), FIG. 7B: 9.38%
HeLa cells [5]; GFP 5 μM
  Mean (%) (n = 3), FIG. 7B: 22.2%
HeLa cells [5]; GFP 10 μM
  Mean (%) (n = 3), FIG. 7B: 34.2%
HeLa cells [6]; Table 2.6, dimer 2 μM
  Mean Factor: 1.3
  Mean counts (n = 4): 79 380
HeLa cells [6]; Table 2.7, dimer 2 μM
  Mean Factor: 3.1
  Mean counts (n = 3): 174 274
Primary myoblasts; primary myoblasts, peptide 2.5 μM, Table 2.11
  Mean counts: 64 864
Primary myoblasts; primary myoblasts, peptide 2.5 μM, factor v. no peptide
  Mean Factor: 2.1
